Reference: patent US20250197513A1, “OSMR-SPECIFIC MONOCLONAL ANTIBODIES AND METHODS OF THEIR USE” (THE BOARD OF REGENTS OF THE UNIVERSITY OF TEXAS SYSTEM, priority 2021, published 2025)

Key:
A2780-Cis cells = test: Cell viability, cisplatin 48 h; format: cell-based, human; conditions: cisplatin alone
Protocol: (§1) CCK8 cell viability assay: One thousand cells were seeded each well in 96-well plates. Following treatment for 48 h, the cells were washed with PBS and incubated for 4 h with CCK8 reagent at 37° C. in 5% CO2 incubator according to manufacturer's guidelines. The absorbance was measured at 460 nm.

OVCAR8-Cis cells = test: Cell viability, cisplatin 48 h; format: cell-based, human; conditions: cisplatin alone
Protocol: as §1

SL-3-Cis cells = test: Cell viability, cisplatin 48 h; format: cell-based, human; conditions: cisplatin alone
Protocol: as §1

A2780 cells = test: Cell viability, cisplatin 48 h; format: cell-based, human; conditions: cisplatin alone
Protocol: as §1

OVCAR8 cells = test: Cell viability, cisplatin 48 h; format: cell-based, human; conditions: cisplatin alone
Protocol: as §1

SL3 cells = test: Cell viability, cisplatin 48 h; format: cell-based, human; conditions: cisplatin alone
Protocol: as §1

A2780 ovarian cancer = test: In vivo, intraperitoneal A2780-sensitive luciferase tumors; design: species or system athymic nude mice; conditions: single agent, mice stimulated with OSM; cisplatin 5 mg/kg biweekly
A2780-CP tumors = test: In vivo, intraperitoneal A2780-cisplatin resistant luciferase tumors; design: species or system athymic nude mice; conditions: cisplatin alone, 5 mg/kg biweekly

N.N.[Cl][Pt][Cl] [cisplatin]
IC50 (A2780-Cis cells): 10.4 µM
IC50 (OVCAR8-Cis cells): 13.6 µM
IC50 (SL-3-Cis cells): 7.37 µM
IC50 (A2780 cells): 2.04 µM
IC50 (OVCAR8 cells): 1.74 µM
IC50 (SL3 cells): 1.21 µM
growth of A2780 ovarian cancer (bioluminescence) (A2780 ovarian cancer): reduced the growth
growth and metastasis of A2780-CP tumors (A2780-CP tumors): did not inhibit the growth and metastasis
